pIC50: −log10 of the molar value. The source made the active and inactive calls. No cut-off for these calls is given here.
What was measured:
[1] = Cytotoxicity against human QSG7701 cells after 24 hrs by MTT assay; format: cell-based; settings: QSG7701, 24 h
HepG2 [2] = experiment: Cytotoxicity against human HepG2 cells after 24 hrs by MTT assay; format: functional, cell-based; settings: HepG2, 24 h
[3] = Cytotoxicity against human FHCC-98 cells after 24 hrs by MTT assay; format: functional, cell-based; settings: FHCC-98, 24 h
HepG2 [4] = experiment: Cell cycle arrest in human HepG2 cells assessed as accumulation at G0/G1 phase at 50 uM after 24 hrs by FACS analysis (reference value: 53.7 %); format: functional
HepG2 [5] = experiment: Cell cycle arrest in human HepG2 cells assessed as accumulation at G2/M phase at 50 uM after 24 hrs by FACS analysis (reference value: 16.8 %); format: functional
FHCC-98 [6] = experiment: Inhibition of human FHCC-98 cell adhesion to matrigel-coated plates at 100 uM after 30 to 60 mins by crystal violet staining-based spectrophotometry; format: functional
HepG2 [7] = experiment: Cell cycle arrest in human HepG2 cells assessed as accumulation at subG0 phase at 50 uM after 24 hrs by FACS analysis relative to control; format: functional
HepG2 [8] = experiment: Cell cycle arrest in human HepG2 cells assessed as accumulation at S phase at 50 uM after 24 hrs by FACS analysis (reference value: 29.5 %); format: functional
FHCC-98 [9] = experiment: Inhibition of human FHCC-98 cell adhesion to matrigel-coated plates at 50 uM after 30 to 60 mins by crystal violet staining-based spectrophotometry; format: functional
HepG2 [10] = experiment: Induction of apoptosis in human HepG2 cells assessed as increase in caspase 3 activation using Ac-DEVD-pNA as substrate at 10 uM after 12 hrs by colorimetry relative to control; format: functional
HepG2 [11] = experiment: Induction of apoptosis in human HepG2 cells assessed as Bax activation at 30 uM after 24 hrs by immunostaining; format: functional, cell-based
HepG2 [12] = experiment: Cell cycle arrest in human HepG2 cells assessed as accumulation at G0/G1 phase at 30 uM after 24 hrs by FACS analysis (reference value: 53.7 %); format: functional
HepG2 [13] = experiment: Cell cycle arrest in human HepG2 cells assessed as accumulation at G2/M phase at 30 uM; format: functional, cell-based; settings: TDE = time-dependent effect
HepG2 [14] = experiment: Cell cycle arrest in human HepG2 cells assessed as accumulation at S phase at 30 uM after 12 hrs by FACS analysis (reference value: 29.5 %); format: functional
HepG2 [15] = experiment: Cell cycle arrest in human HepG2 cells assessed as accumulation at G2/M phase at 30 uM after 12 hrs by FACS analysis (reference value: 16.8 %); format: functional
HepG2 [16] = experiment: Induction of apoptosis in human HepG2 cells assessed as chromatin condensation at 30 uM after 24 hrs by immunostaining; format: functional, cell-based
HepG2 [17] = experiment: Induction of apoptosis in human HepG2 cells assessed as nuclear fragmentation at 30 uM after 24 hrs by immunostaining; format: functional, cell-based
[18] = Induction of apoptosis in human QSG7701 cells assessed as Bax activation at 30 uM after 24 hrs by immunostaining; format: cell-based; settings: qsg7701, 24 h
HepG2 [19] = experiment: Induction of apoptosis in human HepG2 cells assessed as cell shrinkage at 30 uM after 24 hrs by phase-contrast microscopy; format: functional, cell-based
HepG2 [20] = experiment: Cell cycle arrest in human HepG2 cells assessed as accumulation at S phase at 30 uM after 24 hrs by FACS analysis (reference value: 29.5 %); format: functional
[21] = Induction of apoptosis in human QSG7701 cells assessed as increase in caspase 3 activation using Ac-DEVD-pNA as substrate at 30 uM after 12 hrs by colorimetry relative to control; format: cell-based; settings: qsg7701, 12 h
HepG2 [22] = experiment: Induction of apoptosis in human HepG2 cells assessed as up-regulation of Bax at 30 uM by Western blotting analysis; format: functional, cell-based; settings: TDE = time-dependent effect
HepG2 [23] = experiment: Cell cycle arrest in human HepG2 cells assessed as accumulation at G0/G1 phase at 30 uM after 32 hrs by FACS analysis (reference value: 53.7 %); format: functional
HepG2 [24] = experiment: Upregulation of Cdc-2 in human HepG2 cells at 30 uM after 12 to 32 hrs by Western blotting analysis; format: functional, cell-based
HepG2 [25] = experiment: Upregulation of Cdc-2 in human HepG2 cells at 30 to 50 uM after 24 hrs by Western blotting analysis; format: functional, cell-based
HepG2 [26] = experiment: Upregulation of cyclin B1 in human HepG2 cells at 30 to 50 uM after 24 hrs by Western blotting analysis; format: functional, cell-based
HepG2 [27] = experiment: Cell cycle arrest in human HepG2 cells assessed as accumulation at G0/G1 phase at 30 uM after 12 hrs by FACS analysis (reference value: 53.7 %); format: functional
HepG2 [28] = experiment: Cell cycle arrest in human HepG2 cells assessed as accumulation at G2/M phase at 30 uM after 32 hrs by FACS analysis (reference value: 16.8 %); format: functional
HepG2 [29] = experiment: Cell cycle arrest in human HepG2 cells assessed as accumulation at G2/M phase at 30 uM after 24 hrs by FACS analysis (reference value: 16.8 %); format: functional
HepG2 [30] = experiment: Induction of apoptosis in human HepG2 cells assessed as PARP cleavage at 30 uM by Western blotting analysis; format: functional, cell-based; settings: TDE = time-dependent effect
HepG2 [31] = experiment: Cell cycle arrest in human HepG2 cells assessed as accumulation at subG0 phase at 30 uM after 12 hrs by FACS analysis relative to control; format: functional
HepG2 [32] = experiment: Cell cycle arrest in human HepG2 cells assessed as accumulation at subG0 phase at 30 uM after 32 hrs by FACS analysis relative to control; format: functional
HepG2 [33] = experiment: Upregulation of cyclin B1 in human HepG2 cells at 30 uM after 12 to 32 hrs by Western blotting analysis; format: functional, cell-based
HepG2 [34] = experiment: Induction of apoptosis in human HepG2 cells assessed as increase in caspase 3 activation using Ac-DEVD-pNA as substrate at 30 uM after 12 hrs by colorimetry relative to control; format: functional
HepG2 [35] = experiment: Cell cycle arrest in human HepG2 cells assessed as accumulation at S phase at 30 uM after 32 hrs by FACS analysis (reference value: 29.5 %); format: functional
HepG2 [36] = experiment: Induction of apoptosis in human HepG2 cells assessed as down-regulation of Bcl-2 at 30 uM by Western blotting analysis; format: functional, cell-based; settings: TDE = time-dependent effect
HepG2 [37] = experiment: Cell cycle arrest in human HepG2 cells assessed as accumulation at subG0 phase at 30 uM after 24 hrs by FACS analysis relative to control; format: functional

COc1cc(O)cc(/C=C/c2ccc(OC)c(O)c2OC)c1 [PHOYUNBENE A]
pIC50 [1]: < 4.00
pIC50 (HepG2 [2]): < 4.00
pIC50 [3]: < 4.00

Oc1ccc(/C=C/c2cc(O)cc(O)c2)cc1 [RESVERATROL]
pIC50 [1]: < 4.00
pIC50 (HepG2 [2]): 4.10
Activity (HepG2 [4]): 31.9%
Activity (HepG2 [5]): 11.7%
inhibition (FHCC-98 [6]): Active
pIC50 [3]: 4.02
Activity (HepG2 [7]): 0%
Activity (HepG2 [8]): 56.3%
inhibition (FHCC-98 [9]): Active

COc1cc(O)cc(/C=C/c2cccc(OC)c2OC)c1 [PHOYUNBENE D]
pIC50 [1]: < 4.00
pIC50 (HepG2 [2]): < 4.00
pIC50 [3]: 4.09

COc1cc(O)cc(/C=C/c2cccc(O)c2O)c1 [PHOYUNBENE F]
pIC50 [1]: < 4.00
pIC50 (HepG2 [2]): < 4.00
pIC50 [3]: < 4.00

CC[C@@]1(O)C(=O)OCc2c1cc1n(c2=O)Cc2cc3ccccc3nc2-1 [CAMPTOTHECIN]
pIC50 [1]: 4.74
pIC50 (HepG2 [2]): 5.19
fold change (FC) (HepG2 [10]): 4
pIC50 [3]: 4.82

Oc1cccc(/C=C/c2cc(O)cc(O)c2)c1
pIC50 [1]: < 4.00
pIC50 (HepG2 [2]): 4.02
pIC50 [3]: < 4.00

COc1cc(O)cc(/C=C/c2ccc(O)c(OC)c2OC)c1 [PHOYUNBENE B]
Activity (HepG2 [11]): Active
Activity (HepG2 [12]): 17.7%
Activity (HepG2 [13]): tde
pIC50 [1]: < 4.00
Activity (HepG2 [14]): 20.5%
pIC50 (HepG2 [2]): 4.43
Activity (HepG2 [15]): 41.3%
Activity (HepG2 [16]): Active
Activity (HepG2 [17]): Active
Activity [18]: Non-toxic
Activity (HepG2 [19]): Active
Activity (HepG2 [20]): 13%
Activity [21]: Non-toxic
Activity (HepG2 [22]): tde
Activity (HepG2 [23]): 4.6%
Activity (HepG2 [24]): inactive
Activity (HepG2 [25]): inactive
Activity (HepG2 [26]): Active
Activity (HepG2 [27]): 38.2%
Activity (HepG2 [28]): 75.2%
inhibition (FHCC-98 [6]): Active
Activity (HepG2 [29]): 62.8%
pIC50 [3]: 4.34
Activity (HepG2 [30]): tde
Activity (HepG2 [31]): 0%
Activity (HepG2 [32]): 12.3%
Activity (HepG2 [33]): Active
fold change (FC) (HepG2 [34]): 5
inhibition (FHCC-98 [9]): Active
Activity (HepG2 [35]): 7.9%
Activity (HepG2 [36]): tde
Activity (HepG2 [37]): 6.5%

COc1c(O)cccc1/C=C/c1cc(O)cc(O)c1 [PHOYUNBENE E]
pIC50 [1]: < 4.00
pIC50 (HepG2 [2]): < 4.00
pIC50 [3]: < 4.00

COc1cc(O)cc(/C=C/c2cccc(O)c2OC)c1 [PHOYUNBENE C]
pIC50 [1]: < 4.00
pIC50 (HepG2 [2]): 4.04
pIC50 [3]: < 4.00
